Measured values: patent US7973164B2, “Quinoline derivatives” (AstraZeneca AB, priority 2006, dated 2011)

Tests used:
PDGFRβ = target: T1, PDGFRβ (Homo sapiens, UniProt P09619); assay: Test (b) in vitro phospho-Tyr751 PDGFRβ ELISA assay in MG63 osteosarcoma cells; type: cell-based; details: MG63 osteosarcoma cells stimulated with PDGFBB, read-out: IC50 versus phospho-Tyr751 formation in PDGFRβ
T1 construct: endogenous in cells; host or cells: MG63 osteosarcoma cells (ATCC)
Protocol: (b) In Vitro Phospho-Tyr751 PDGFRβ ELISA Assay
This assay uses a conventional ELISA method to determine the ability of test compounds to inhibit phosphorylation of tyrosine in PDGFRβ.
Aliquots (100 μl) of culture media were placed in the outer wells to minimise edge effects. The cells were incubated overnight at 37° C. with 7.5% CO2 to allow the cells to adhere to the wells.
Aliquots (3 μl) of each compound concentration were added to test medium (300 μl) to create a second dilution range. Aliquots (16 μl) of each resultant compound concentration were added to the cells in each well. “Maximum” control cells received a dilution of DMSO plus test medium only. “Minimum” control cells received a reference PDGFR inhibitor (16 μl). The cells were incubated for 90 minutes at 37° C. with 7.5% CO2.
The resultant cells were stimulated with PDGFBB using the following procedure. A lyophilised powder of PDGFBB, (Sigma-Aldrich; Catalogue No. P4306) was mixed with sterile water to provide a stock solution of 10 μg/ml of PDGFBB. […] Aliquots thereof (44 μl) were added to compound treated cells and to the “Maximum” control cells. The “Minimum” control cells received medium only. The cells were incubated at 37° C. with 7.5% CO2 for 5 minutes. […] The resultant tissue culture plates were shaken for 5 minutes at ambient temperature to ensure full lysis and then frozen at −20° C. until required.
Aliquots (50 μl) were added to each well and the plates were placed at 4° C. for 16 hours. The wells were washed 5 times (1 minute soak each time) with 300 μl per well of PBST. The wells were treated with 50 μl of 3% BSA in PBST at ambient temperature for 1 hour and subsequently washed twice with 300 μl per well of PBST.
The tissue culture plates with frozen cell lysate were allowed to warm to 0° C. Aliquots (50 μl) of the MG63 cell lysate were added to the ELISA plates. Each sample was duplicated on separate plates. The ELISA plates were agitated at ambient temperature for 2 hours. The wells were washed twice with 300 μl per well of PBST. […] Aliquots (50 μl) of the antibody solutions were added to each of the wells. The plates were agitated at ambient temperature for 1 hour. The plates were washed twice with 300 μl per well of PBST. […] Aliquots (50 μl) of the resultant dilution were added to each well and the plates were agitated at ambient temperature for 1 hour. The plates were washed 5 times with 300 μl per well of PBST. […] Aliquots (50 μl) of chemiluminescent substrate solution were added to each of the wells, the plates were agitated for 2 minutes and luminescence was read on a SpectraFluor Plus plate reader (Tecan UK Ltd., Reading, Berkshire, UK). Analysis for each of the compounds was completed by determining a ratio of the ‘phospho antibody’ plate reading to the ‘total antibody’ plate reading for each test sample and these ratios were plotted to determine the IC50 value of each test compound.

KDR (VEGFR2) = target: T2, KDR (VEGFR2) (Homo sapiens, UniProt P35968); assay: Test (c) in vitro phospho-KDR ELISA assay in HUVECs; type: cell-based; details: HUVECs stimulated with VEGF, read-out: IC50 versus phospho-tyrosine formation in KDR
T2 construct: phosphorylation of KDR expressed in human umbilical vein endothelial cells (HUVECs); host or cells: HUVECs
Protocol: (c) In Vitro Phospho-KDR ELISA Assay
This assay uses a conventional ELISA method to determine the ability of test compounds to inhibit phosphorylation of tyrosine in KDR (VEGFR2).
The cells were incubated overnight at 37° C. with 7.5% CO2 to allow adherence to the well surface. […] The plates were incubated at 37° C. for 2.5 hours.
Test compounds were prepared as 10 mM stock solutions in DMSO and serially diluted with DMSO as required. Aliquots (3 μl) of each concentration of test compound were diluted with ‘serum fiee medium’ (300 μl). Aliquots (50 μl) of each resultant compound concentration were added to the cells in each well. […] The cells were incubated for 90 minutes at 37° C. with 7.5% CO2.
The resultant cells were stimulated with VEGF using the following procedure. A lyopliilised powder of VEGF (Sigma-Aldrich; Catalogue No. V7259) was mixed with PBS containing 0.1% filter-sterilised BSA (0.1% BSA/PBS) to provide a stock solution of 10 μg/ml of VEGF. A dilution of this stock solution into ‘serum free medium’ provided a 1000 ng/ml VEGF solution. Aliquots thereof (50 μl) were added to all wells. The cells were incubated at 37° C. with 7.5% CO2 for 5 minutes. […] The resultant tissue culture plates were shaken for 5 minutes at ambient temperature to ensure full lysis before being frozen on dry-ice and stored at −20° C. until required.
The antibody was diluted in PBS to a concentration of 8 μg/ml, aliquots (100 μl) were added to each well and the plates were stored at ambient temperature for 16 hours. The wells were washed 3 times (1 minute soak each time) with 300 μl per well of PBST. The wells were treated with PBS containing 1% filter-sterilised BSA (1% BSA/PBS; 200 μl) at ambient temperature for 1 hour and subsequently washed 3 times with 300 μl per well of PBST.
The tissue culture plates with frozen cell lysate were allowed to warm to 0° C. Aliquots (100 μl) of the HUVEC cell lysate were added and the ELISA plates were agitated at ambient temperature for 3 hours. The wells were washed 3 times with 300 μl per well of PBST. […] Aliquots (100 μl) of the resultant dilution were added to each well and the plates were agitated at ambient temperature for 2 hours. The plates were washed 4 times with 300 μl per well of PBST. […] Aliquots (50 μl) of chemiluminescent substrate solution were added to each of the wells, the plates were agitated for 2 minutes and luminescence was read on a SpectraFluor is Plus plate reader (Tecan UK Ltd.). The resultant data were analysed to determine the IC50 value of each test compound.

[1] = system: human glioblastoma lines U343 and U87; details: U343 and U87 injected into the brains of nude mice; Cancer Research 2000; cited from earlier work
PDGF receptor kinase = details: literature (Nature Reviews 2002; Cancer Research 1996); cited from earlier work
[2] = system: dermatofibrosarcoma protruberans cell cultures; details: Cancer Research 2001; cited from earlier work

T2 sequence (P35968 20-1356): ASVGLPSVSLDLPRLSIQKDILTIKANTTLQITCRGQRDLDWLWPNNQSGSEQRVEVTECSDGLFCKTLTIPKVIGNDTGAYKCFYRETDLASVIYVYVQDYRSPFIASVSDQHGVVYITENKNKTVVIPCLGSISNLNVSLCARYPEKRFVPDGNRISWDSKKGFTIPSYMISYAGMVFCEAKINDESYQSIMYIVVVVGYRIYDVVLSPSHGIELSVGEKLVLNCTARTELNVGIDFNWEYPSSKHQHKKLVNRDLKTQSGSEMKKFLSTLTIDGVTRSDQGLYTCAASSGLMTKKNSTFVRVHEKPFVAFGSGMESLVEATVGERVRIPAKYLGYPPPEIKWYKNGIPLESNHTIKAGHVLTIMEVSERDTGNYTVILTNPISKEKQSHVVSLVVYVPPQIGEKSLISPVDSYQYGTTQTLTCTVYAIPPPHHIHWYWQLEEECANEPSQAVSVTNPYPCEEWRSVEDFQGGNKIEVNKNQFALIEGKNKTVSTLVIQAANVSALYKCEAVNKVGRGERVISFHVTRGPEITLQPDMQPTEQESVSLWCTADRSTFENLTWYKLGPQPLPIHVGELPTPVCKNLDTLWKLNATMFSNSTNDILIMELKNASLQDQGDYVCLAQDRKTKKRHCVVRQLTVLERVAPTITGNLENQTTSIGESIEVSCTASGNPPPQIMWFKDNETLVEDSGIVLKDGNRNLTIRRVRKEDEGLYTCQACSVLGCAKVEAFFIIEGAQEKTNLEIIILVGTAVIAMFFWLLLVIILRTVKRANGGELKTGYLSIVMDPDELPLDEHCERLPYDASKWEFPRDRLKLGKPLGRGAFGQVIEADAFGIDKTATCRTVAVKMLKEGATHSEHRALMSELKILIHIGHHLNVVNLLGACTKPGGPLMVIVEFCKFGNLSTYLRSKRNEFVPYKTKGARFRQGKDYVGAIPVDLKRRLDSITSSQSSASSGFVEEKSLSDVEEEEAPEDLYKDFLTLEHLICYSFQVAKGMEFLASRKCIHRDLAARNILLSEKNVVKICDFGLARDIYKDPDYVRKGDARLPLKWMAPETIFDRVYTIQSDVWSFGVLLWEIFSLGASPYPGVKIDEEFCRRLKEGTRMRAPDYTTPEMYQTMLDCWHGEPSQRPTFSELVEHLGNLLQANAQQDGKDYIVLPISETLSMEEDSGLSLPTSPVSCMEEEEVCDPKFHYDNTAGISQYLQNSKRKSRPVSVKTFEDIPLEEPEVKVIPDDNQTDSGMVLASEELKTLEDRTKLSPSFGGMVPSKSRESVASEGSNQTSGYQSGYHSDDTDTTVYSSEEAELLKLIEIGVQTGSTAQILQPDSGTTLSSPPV
T1 sequence (P09619 33-1106): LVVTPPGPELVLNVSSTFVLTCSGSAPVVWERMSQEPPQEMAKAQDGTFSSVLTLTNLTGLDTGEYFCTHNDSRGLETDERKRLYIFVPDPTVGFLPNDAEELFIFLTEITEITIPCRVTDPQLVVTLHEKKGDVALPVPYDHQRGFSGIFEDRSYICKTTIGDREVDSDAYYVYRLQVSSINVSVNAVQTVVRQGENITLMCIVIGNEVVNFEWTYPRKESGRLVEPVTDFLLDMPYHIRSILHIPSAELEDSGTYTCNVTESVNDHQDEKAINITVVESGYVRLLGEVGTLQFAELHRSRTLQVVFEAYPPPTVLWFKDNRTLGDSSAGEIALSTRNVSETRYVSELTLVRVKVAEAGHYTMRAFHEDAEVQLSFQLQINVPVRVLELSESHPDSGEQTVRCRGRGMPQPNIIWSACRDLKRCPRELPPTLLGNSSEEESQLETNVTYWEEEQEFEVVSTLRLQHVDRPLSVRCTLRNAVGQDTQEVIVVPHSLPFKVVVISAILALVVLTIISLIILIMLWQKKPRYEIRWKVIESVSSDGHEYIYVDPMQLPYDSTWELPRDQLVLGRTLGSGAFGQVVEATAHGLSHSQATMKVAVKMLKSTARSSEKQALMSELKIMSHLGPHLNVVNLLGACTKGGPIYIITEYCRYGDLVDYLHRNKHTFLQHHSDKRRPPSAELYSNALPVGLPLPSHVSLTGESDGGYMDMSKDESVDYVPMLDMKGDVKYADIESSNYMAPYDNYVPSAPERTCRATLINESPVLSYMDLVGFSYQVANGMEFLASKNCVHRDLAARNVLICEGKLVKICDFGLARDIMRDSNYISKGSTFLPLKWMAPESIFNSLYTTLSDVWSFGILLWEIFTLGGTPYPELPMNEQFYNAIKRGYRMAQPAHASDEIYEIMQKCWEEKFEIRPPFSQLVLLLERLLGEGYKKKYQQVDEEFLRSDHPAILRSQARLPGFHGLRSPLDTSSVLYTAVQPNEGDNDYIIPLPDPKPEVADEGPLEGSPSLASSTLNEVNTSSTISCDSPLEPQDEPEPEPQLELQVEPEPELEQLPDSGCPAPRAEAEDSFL

| SMILES | IC50 (PDGFRβ) [µM] | IC50 (KDR (VEGFR2)) [µM] | inhibition of growth of glioblastoma tumours [1] | inhibition of PDGF receptor kinase activity (PDGF receptor kinase) | inhibition of in vivo growth of dermatofibrosarcoma protruberans cell cultures [2] |
| --- | --- | --- | --- | --- | --- |
| CCn1cc(NC(=O)Cc2ccc(Oc3ccnc4ccccc34)cc2OC)cn1 [N-(1-ethyl-1H-pyrazol-4-yl)-2-(2-methoxy-4-quinolin-4-yloxyphenyl)acetamide] | ~0.02 | > 1 |  |  |  |
| CCn1cc(NC(=O)Cc2ccc(Oc3ccnc4cc(OC)c(C#N)cc34)cc2OC)cn1 [N-(1-ethyl-1H-pyrazol-4-yl)-2-[4-(6-cyano-7-methoxyquinolin-4-yloxy)-2-methoxyphenyl]acetamide] | ~0.002 | ~0.75 |  |  |  |
| CCn1cc(NC(=O)Cc2ccc(Oc3ccnc4cc(OC)c(C#N)cc34)cc2)cn1 [N-(1-ethyl-1H-pyrazol-4-yl)-2-[4-(6-cyano-7-methoxyquinolin-4-yloxy)phenyl]acetamide] | ~0.002 | ~0.2 |  |  |  |
| CCn1cc(NC(=O)Cc2ccc(Oc3ccnc4cc(OC)c(C(=O)N(C)C)cc34)cc2)cn1 [N-(1-ethyl-1H-pyrazol-4-yl)-2-{4-[6-(N,N-dimethylcarbamoyl)-7-methoxyquinolin-4-yloxy]phenyl}acetamide] | ~0.003 | ~0.7 |  |  |  |
| COc1cc(Oc2ccnc3ccc(F)cc23)ccc1CC(=O)Nc1n[nH]c(C)c1C [N-(4,5-dimethyl-1H-pyrazol-3-yl)-2-[4-(6-fluoroquinolin-4-yloxy)-2-methoxyphenyl]acetamide] | ~0.01 | > 2 |  |  |  |
| CNC(=O)c1cc2c(Oc3ccc(CC(=O)Nc4noc(C)c4C)c(OC)c3)ccnc2cc1OC [N-(4,5-dimethylisoxazol-3-yl)-2-{2-methoxy-4-[7-methoxy-6-(N-methylcarbamoyl)quinolin-4-yloxy]phenyl}acetamide] | ~0.005 | ~1 |  |  |  |
| CCc1c[nH]nc1NC(=O)Cc1ccc(Oc2ccnc3cc(OC)c(OC)cc23)cc1OC [N-(4-ethyl-1H-pyrazol-3-yl)-2-[4-(6,7-dimethoxyquinolin-4-yloxy)-2-methoxyphenyl]acetamide] | ~0.005 | > 2 |  |  |  |
| COc1cc(Oc2ccnc3ccc(F)cc23)ccc1CC(=O)Nc1cc(C)[nH]n1 [N-(5-methyl-1H-pyrazol-3-yl)-2-[4-(6-fluoroquinolin-4-yloxy)-2-methoxyphenyl]acetamide] | ~0.01 | > 2 |  |  |  |
| Cc1ccc(NC(=O)c2ccc(CN3CCN(C)CC3)cc2)cc1Nc1nccc(-c2cccnc2)n1 [imatinib] |  |  | inhibits the growth of glioblastoma tumours | shown to inhibit PDGF receptor kinase activity | inhibits the in vivo growth of dermatofibrosarcoma protruberans cell cultures |
